We go through 20 compounds from PubChem BioAssay AID330 (DTP/NCI, 2004).

The test system of the experiment is P388 leukemia ip, CD2F1 mice, survival T/C. The experiment in a line: NCI In Vivo Anticancer Drug Screen. Data for tumor model P388 Leukemia (intraperitoneal) in CD2F1 (CDF1) mice. The settings on record: endpoint: median survival time, higher = longer survival. In a few lines:
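Mice carrying the transplanted tumor received test compound or vehicle. Survival was recorded in each group, and the value is the treated-group measurement divided by that of the vehicle-treated control group.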

[1] abbreviates: dose: 25.0 mg/kg/injection, schedule: Q01DX009 (ip), vehicle: water.
[2] abbreviates: dose: 50.0 mg/kg/injection, schedule: Q01DX005 (ip), vehicle: saline with Tween-80.
The mark [3] stands for this setting: dose: 100.0 mg/kg/injection, schedule: Q01DX005 (ip), vehicle: saline with Tween-80.
[4] abbreviates: dose: 50.0 mg/kg/injection, schedule: Q01DX009 (ip), vehicle: saline.
[5] abbreviates: dose: 100.0 mg/kg/injection, schedule: Q01DX009 (ip), vehicle: saline.
Where [6] appears, read: dose: 25.0 mg/kg/injection, schedule: Q01DX009 (ip), vehicle: other.
The mark [7] stands for this setting: dose: 50.0 mg/kg/injection, schedule: Q01DX009 (ip), vehicle: other.
The mark [8] stands for this setting: dose: 100.0 mg/kg/injection, schedule: Q01DX009 (ip), vehicle: other.
Setting [9] is: dose: 200.0 mg/kg/injection, schedule: Q01DX009 (ip), vehicle: other.
Setting [10] is: dose: 50.0 mg/kg/injection, schedule: Q01DX005 (ip), vehicle: Klucel (hydroxypropylcellulose) (HPC).
[11] abbreviates: dose: 100.0 mg/kg/injection, schedule: Q01DX005 (ip), vehicle: Klucel (hydroxypropylcellulose) (HPC).

Several values for one entry are separate records, joined by “and”; a condition that tells them apart may be missing. Equal entries are not always repeated. Toxic doses and inconclusive results are not listed.

Consider `COc1cccc2c1C(=O)c1c(O)c3c(c(O)c1C2=O)C[C@@](O)(/C(C)=N\O)C[C@@H]3OC1CC(N)C(O)C(C)O1` (stereo partly drawn), for which the T/C is 154 % of control (dose: 3.13 mg/kg/injection, schedule: Q01DX009 (ip), vehicle: water); 165 % of control (dose: 6.25 mg/kg/injection, schedule: Q01DX009 (ip), vehicle: water); 115 % of control and 124 % of control (dose: 6.25 mg/kg/injection, schedule: Q04DX003 (ip), vehicle: water); 183 % of control (dose: 12.5 mg/kg/injection, schedule: Q01DX009 (ip), vehicle: water); 116 % of control and 117 % of control (dose: 12.5 mg/kg/injection, schedule: Q04DX003 (ip), vehicle: water); 100 % of control under setting [1]. The T/C was 123 % of control (dose: 25.0 mg/kg/injection, schedule: Q04DX003 (ip), vehicle: water); 119 % of control (dose: 100.0 mg/kg/injection, schedule: Q04DX003 (ip), vehicle: water); 101 % of control (dose: 200.0 mg/kg/injection, schedule: Q04DX003 (ip), vehicle: water).
In the case of `C/C(=N/NC(=S)NCc1ccccc1)c1ncccn1`, the T/C is, setting by setting: (dose: 12.5 mg/kg/injection, schedule: Q01DX005 (ip), vehicle: saline with Tween-80) 100 % of control; (dose: 25.0 mg/kg/injection, schedule: Q01DX005 (ip), vehicle: saline with Tween-80) 100 % of control; under setting [2], 105 % of control and 98 % of control.
With `Nc1nc2nc(/N=N/SCCC(=O)O)[nH]c2c(=O)[nH]1`, the T/C was 105 % of control under setting [2] and 108 % of control under setting [3].
For the compound `Nc1ncnc2c1ccn2C1OC(CSCCC(N)C(=O)O)C(O)C1O` (stereo not drawn), the T/C is, setting by setting: (dose: 0.5 mg/kg/injection, schedule: Q01DX009 (ip), vehicle: water) 98 % of control; (dose: 1.0 mg/kg/injection, schedule: Q01DX009 (ip), vehicle: water) 102 % of control; (dose: 2.0 mg/kg/injection, schedule: Q01DX009 (ip), vehicle: water) 97 % of control; (dose: 4.0 mg/kg/injection, schedule: Q01DX009 (ip), vehicle: water) 93 % of control; (dose: 8.0 mg/kg/injection, schedule: Q01DX009 (ip), vehicle: water) 104 % of control.
Turning to `C=C1C(=O)OC2CC1C(OC(C)=O)CC1(C)OC1CCC1(C)OC1CCC2(C)O` (stereo not drawn), the T/C was 119 % of control (dose: 6.26 mg/kg/injection, schedule: Q01DX009 (ip), vehicle: Klucel (hydroxypropylcellulose) (HPC)); 117 % of control (dose: 12.5 mg/kg/injection, schedule: Q01DX009 (ip), vehicle: Klucel (hydroxypropylcellulose) (HPC)); 123 % of control (dose: 25.0 mg/kg/injection, schedule: Q01DX009 (ip), vehicle: Klucel (hydroxypropylcellulose) (HPC)).
For `COC(=O)C(C)=O`, the T/C (dose: 100.0 mg/kg/injection, schedule: Q04DX003 (ip), vehicle: saline) is 100 % of control; the T/C (dose: 200.0 mg/kg/injection, schedule: Q04DX003 (ip), vehicle: saline) was 90 % of control; the T/C (dose: 400.0 mg/kg/injection, schedule: Q04DX003 (ip), vehicle: saline) was 90 % of control.
Consider `CCCC(O)C(C(=O)OCC)C(=O)OCC` (stereo not drawn), for which the T/C under setting [4] is 95 % of control; the T/C under setting [5] was 95 % of control; the T/C (dose: 200.0 mg/kg/injection, schedule: Q01DX009 (ip), vehicle: saline) was 94 % of control.
For `NC(CSCSCc1ccccc1)C(=O)O` (stereo not drawn), the T/C by setting is: under setting [6], 102 % of control; under setting [7], 110 % of control; under setting [8], 102 % of control; under setting [9], 106 % of control.
As for `CCOc1ccccc1N=Nc1c(-c2ccccc2)nn(C(N)=S)c1-c1ccccc1`, the T/C under setting [2] was 100 % of control; the T/C under setting [3] is 108 % of control; the T/C (dose: 200.0 mg/kg/injection, schedule: Q01DX005 (ip), vehicle: saline with Tween-80) is 101 % of control.
For the compound `CC(=O)C1CC(=O)c2c(O)ccc(O)c2C1` (stereo not drawn), the T/C was 94 % of control under setting [1]; 96 % of control (dose: 50.0 mg/kg/injection, schedule: Q01DX009 (ip), vehicle: water); 89 % of control (dose: 100.0 mg/kg/injection, schedule: Q01DX009 (ip), vehicle: water); 111 % of control (dose: 200.0 mg/kg/injection, schedule: Q01DX009 (ip), vehicle: water); 109 % of control (dose: 400.0 mg/kg/injection, schedule: Q01DX009 (ip), vehicle: water).
With `CCOC(=O)C/[N+]([O-])=C/c1ccccc1`, the T/C reads like this: (dose: 12.5 mg/kg/injection, schedule: Q01DX009 (ip), vehicle: other) 100 % of control; under setting [6], 98 % of control; under setting [7], 117 % of control; under setting [8], 100 % of control; under setting [9], 100 % of control.
For `C[C@]12CCC(=O)C=C1CC[C@@H]1[C@@H]2CC[C@@]2(C)[C@H]1CCCN2CCO`, the T/C was 99 % of control (dose: 25.0 mg/kg/injection, schedule: Q01DX001 (ip), vehicle: Klucel (hydroxypropylcellulose) (HPC)); 103 % of control (dose: 50.0 mg/kg/injection, schedule: Q01DX001 (ip), vehicle: Klucel (hydroxypropylcellulose) (HPC)); 99 % of control and 97 % of control (dose: 100.0 mg/kg/injection, schedule: Q01DX001 (ip), vehicle: Klucel (hydroxypropylcellulose) (HPC)).
As for `CCCC(C#N)(CCCl)c1ccccc1` (stereo not drawn), the T/C is, setting by setting: (dose: 100.0 mg/kg/injection, schedule: Q04DX003 (ip), vehicle: saline with Tween-80) 100 % of control; (dose: 200.0 mg/kg/injection, schedule: Q04DX003 (ip), vehicle: saline with Tween-80) 104 % of control; (dose: 400.0 mg/kg/injection, schedule: Q04DX003 (ip), vehicle: saline with Tween-80) 95 % of control.
With `NC(N)=NCCCCCC(=O)O`, the T/C runs as follows: under setting [4], 100 % of control; under setting [5], 109 % of control.
Turning to `Cc1oc(C)c(-c2ccccc2)c1C(=O)N1CCN(C)CC1`, the T/C (dose: 60.0 mg/kg/injection, schedule: Q01DX005 (ip), vehicle: saline with Tween-80) is 98 % of control and the T/C (dose: 120.0 mg/kg/injection, schedule: Q01DX005 (ip), vehicle: saline with Tween-80) was 98 % of control.
For the compound `CCN(CCO)CCNc1ccc(C)c2sc3cc(Cl)ccc3c(=O)c12`, the T/C (dose: 12.5 mg/kg/injection, schedule: Q01DX005 (ip), vehicle: Klucel (hydroxypropylcellulose) (HPC)) was 104 % of control; the T/C (dose: 25.0 mg/kg/injection, schedule: Q01DX005 (ip), vehicle: Klucel (hydroxypropylcellulose) (HPC)) is 104 % of control; the T/C under setting [10] was 101 % of control and 102 % of control; the T/C under setting [11] is 111 % of control.
With `CCCCCc1cc(O)c2c(c1)OC(C)(C)c1ccc(C)cc1-2`, the T/C (dose: 64.0 mg/kg/injection, schedule: Q01DX009 (ip), vehicle: saline) is 115 % of control; the T/C (dose: 128.0 mg/kg/injection, schedule: Q01DX009 (ip), vehicle: saline) was 97 % of control; the T/C (dose: 256.0 mg/kg/injection, schedule: Q01DX009 (ip), vehicle: saline) was 109 % of control; the T/C (dose: 512.0 mg/kg/injection, schedule: Q01DX009 (ip), vehicle: saline) is 106 % of control.
For `N#CC(C(N)=O)C(CC(=O)c1ccccc1)c1ccccc1` (stereo not drawn), the T/C by setting is: under setting [10], 100 % of control; under setting [11], 102 % of control; (dose: 200.0 mg/kg/injection, schedule: Q01DX005 (ip), vehicle: Klucel (hydroxypropylcellulose) (HPC)) 101 % of control.
In the case of `CSC(=S)n1nc(C)c(N=Nc2ccc(Br)cc2)c1C`, the T/C reads like this: (dose: 100.0 mg/kg/injection, schedule: Q04DX002 (ip), vehicle: Klucel (hydroxypropylcellulose) (HPC)) 107 % of control; (dose: 200.0 mg/kg/injection, schedule: Q04DX002 (ip), vehicle: Klucel (hydroxypropylcellulose) (HPC)) 103 % of control; (dose: 400.0 mg/kg/injection, schedule: Q04DX002 (ip), vehicle: Klucel (hydroxypropylcellulose) (HPC)) 103 % of control.
For `CCCCN(CCCC)S(=O)(=O)N1CCCCC1`, the T/C is 105 % of control (dose: 50.0 mg/kg/injection, schedule: Q04DX002 (ip), vehicle: saline); 98 % of control (dose: 100.0 mg/kg/injection, schedule: Q04DX002 (ip), vehicle: saline); 96 % of control (dose: 200.0 mg/kg/injection, schedule: Q04DX002 (ip), vehicle: saline); 100 % of control (dose: 400.0 mg/kg/injection, schedule: Q04DX002 (ip), vehicle: saline).
